Measured values reported in ChEMBL document CHEMBL1201862, “PubChem BioAssay data set” (2004).
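A five-concentration, 48-hour dose response in 96-well plates underlies each endpoint, interpolated linearly between surrounding concentrations. Abbreviation: GI50, concentration required for 50% inhibition of growth.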 Activity calls are given as the source filed them. Cut-off read from the data, not from the text of the source: active = GI50 up to about 1.1 µM and inactive = higher. Starred links: 1 amine or outer side, 2 acyl side, 3 side chain; linkers in the order of their positions; H or OH if unused. Non-standard residues stand in square brackets, D forms with d. Residues, ends and D or L forms follow the SMILES beside them. ξ: configuration not given here. Ile(3ξ) = CCC(C)[C@H](N)C(=O)O; X35 = C=CCC(O[*:1])C(=O)[*:2]; NMeV = CN[C@H](C(=O)O)C(C)C; NMeA = CN[C@@H](C)C(=O)O; βAla = NCCC(=O)O

Tests used:
Assay in all cases: growth of human tumour cells (NCI), 48 h
XF498 = system: XF498
DMS-114 = system: DMS-114
SNB-78 = system: SNB-78
RXF 631 = system: RXF 631
KM-20L2 = system: KM-20L2
LXFL 529 = system: LXFL 529
HOP-18 = system: HOP-18
DLD-1 = system: DLD-1
DMS-273 = system: DMS-273

Measured: GI50

O=C(O)C12C3CCCC1C2CC3 (configuration not stated)
inactive: XF498 > 100 µM | DMS-114 > 100 µM | SNB-78 > 100 µM | RXF 631 > 100 µM | KM-20L2 > 100 µM | LXFL 529 > 100 µM | HOP-18 > 100 µM | DLD-1 > 100 µM

COc1ccc(C2=NN(C(C)=O)c3nc4ccccc4nc3O2)cc1
inactive: XF498 19.1 µM | DMS-114 42.2 µM | DMS-273 42.1 µM | RXF 631 23 µM | LXFL 529 31.4 µM | HOP-18 17.7 µM | DLD-1 25.4 µM

COc1ccc(O)c2c1C(=O)CCCC2=O
inactive: XF498 > 100 µM | DMS-114 > 100 µM | SNB-78 > 100 µM | DMS-273 > 100 µM | RXF 631 > 100 µM | KM-20L2 > 100 µM | LXFL 529 > 100 µM | DLD-1 > 100 µM

C=CCC1OC(=O)CCNC(=O)[C@H](C)N(C)C(=O)[C@H](C(C)C)N(C)C(=O)[C@H](C(C)CC)NC(=O)[C@@H]2CCCN2C1=O (some centres not stated) (cyclo([Ile(3ξ)][NMeV][NMeA][βAla][X35]P))
inactive: XF498 3.65 µM | DMS-114 7.5 µM | SNB-78 > 100 µM | DMS-273 3.63 µM | RXF 631 4.92 µM | KM-20L2 3.18 µM | LXFL 529 3.94 µM | DLD-1 10.4 µM

CCSc1nc(N2CCCC2)s[s+]1.[O-][Cl+3]([O-])([O-])[O-]
inactive: XF498 31 µM | DMS-114 17.6 µM | SNB-78 74.8 µM | DMS-273 49.5 µM | KM-20L2 55.6 µM | LXFL 529 22.7 µM | HOP-18 > 100 µM | DLD-1 85.3 µM

O=C1CCC(c2nc3ccccc3o2)C(=O)N1 (configuration not stated)
inactive: DMS-114 > 100 µM | SNB-78 > 100 µM | DMS-273 > 100 µM | RXF 631 > 100 µM | KM-20L2 > 100 µM | LXFL 529 > 100 µM | HOP-18 > 100 µM | DLD-1 > 100 µM

CCCCc1c2c(nc3c1CCC/C3=C\c1ccccc1)C(=O)C(CN(C)C)CC2 (configuration not stated)
inactive: XF498 14.9 µM | DMS-114 17.7 µM | SNB-78 20.7 µM | DMS-273 20.2 µM | KM-20L2 17.8 µM | LXFL 529 8.38 µM | HOP-18 23.6 µM | DLD-1 17.1 µM

Cc1ccc(NC(=O)C(=O)CC(=O)c2c(C)[n+]([O-])c3ccccc3[n+]2[O-])cc1
inactive: DMS-114 18.2 µM | SNB-78 49.4 µM | DMS-273 25.9 µM | RXF 631 36.5 µM | KM-20L2 30.8 µM | LXFL 529 35.2 µM | HOP-18 30.9 µM

C/C(=N\NS(=O)(=O)c1ccc(C)cc1)C(CN1CCCCC1)C(c1ccccc1)c1c(O)c2ccccc2oc1=O (configuration not stated)
inactive: XF498 > 100 µM | SNB-78 > 100 µM | KM-20L2 > 100 µM | LXFL 529 > 100 µM | HOP-18 > 100 µM | DLD-1 > 100 µM

CC(C)NC1CCCCC2c3ccccc3C12O (configuration not stated)
inactive: XF498 > 100 µM | DMS-114 > 100 µM | SNB-78 > 100 µM | DMS-273 > 100 µM | KM-20L2 > 100 µM | LXFL 529 > 100 µM | HOP-18 > 100 µM

O=C1[C@H]2ON(c3ccccc3)C(c3cccc([N+](=O)[O-])c3)[C@H]2C(=O)N1c1ccc(Cc2ccc(N3C(=O)[C@@H]4ON(c5ccccc5)C(c5cccc([N+](=O)[O-])c5)[C@@H]4C3=O)cc2)cc1 (some centres not stated)
inactive: DMS-114 > 100 µM | SNB-78 > 100 µM | DMS-273 > 100 µM | KM-20L2 > 100 µM | LXFL 529 > 100 µM | HOP-18 > 100 µM | DLD-1 > 100 µM

COc1cc(/C=C/C(=O)c2sc(NNC(C)=O)nc2C)ccc1O
inactive: DMS-114 > 100 µM | SNB-78 > 100 µM | DMS-273 > 100 µM | RXF 631 > 100 µM | KM-20L2 > 100 µM | HOP-18 > 100 µM | DLD-1 > 100 µM

CCCN(CCC)c1c([N+](=O)[O-])cc(C(=O)N(CC)CC)cc1[N+](=O)[O-]
inactive: DMS-114 10.9 µM | SNB-78 31 µM | DMS-273 17.6 µM | KM-20L2 18.4 µM | LXFL 529 19.1 µM | DLD-1 17.6 µM

CN(C)c1nc(Oc2nc(N(C)C)nc(N(C)C)n2)nc(N(C)C)n1
inactive: XF498 84.7 µM | DMS-114 51.4 µM | SNB-78 61.4 µM | DMS-273 61 µM | KM-20L2 > 100 µM | LXFL 529 > 100 µM | HOP-18 > 100 µM | DLD-1 > 100 µM

CCCCCCCCCCCc1c(O)c(=O)c2c(oc3c(=O)c(CCCCCCCCCCC)c(O)c(=O)c3n2-c2ccc(N(C)C)cc2)c1=O
inactive: XF498 21.5 µM | DMS-114 24.8 µM | SNB-78 55.2 µM | DMS-273 22.8 µM | KM-20L2 19.3 µM | LXFL 529 21.2 µM | HOP-18 22.6 µM | DLD-1 18.8 µM

Nc1nc(Cl)c2ncn(CCCC(c3ccccc3)P(=O)(O)O)c2n1 (configuration not stated)
inactive: DMS-114 > 100 µM | SNB-78 > 100 µM | DMS-273 > 100 µM | KM-20L2 > 100 µM | LXFL 529 > 100 µM | HOP-18 > 100 µM | DLD-1 > 100 µM

Clc1ccc(/N=N/c2nc3ccccc3nc2/N=N/c2ccc(Cl)cc2Cl)c(Cl)c1
inactive: XF498 > 100 µM | DMS-114 > 100 µM | SNB-78 > 100 µM | KM-20L2 > 100 µM | LXFL 529 78.5 µM | DLD-1 > 100 µM

COCN/C(N)=N/C#N
inactive: DMS-114 18.4 µM | SNB-78 > 100 µM | DMS-273 27.9 µM | KM-20L2 > 100 µM | LXFL 529 > 100 µM | HOP-18 > 100 µM | DLD-1 42 µM

C/C(=N\NC(=O)CC#N)c1c(O)cc(C)oc1=O
inactive: SNB-78 > 100 µM | RXF 631 > 100 µM | KM-20L2 > 100 µM | LXFL 529 > 100 µM | HOP-18 > 100 µM | DLD-1 > 100 µM

C1=c2ccccc2=C2C(=C(c3ccccc3)C(c3ccccc3)=NN2c2ccccc2)S1
inactive: DMS-114 > 100 µM | SNB-78 > 100 µM | DMS-273 > 100 µM | KM-20L2 > 100 µM | LXFL 529 > 100 µM | HOP-18 > 100 µM | DLD-1 > 100 µM

C=CCc1cc(OC)c2c(c1)C(O)CC(c1ccc(OC)c(OC)c1)O2 (configuration not stated)
inactive: DMS-114 59.8 µM | SNB-78 > 100 µM | DMS-273 > 100 µM | KM-20L2 > 100 µM | LXFL 529 > 100 µM | HOP-18 > 100 µM | DLD-1 > 100 µM

Nc1nc(SCC(=O)c2ccccc2)c2[nH]cnc2n1
inactive: XF498 > 100 µM | DMS-114 > 100 µM | DMS-273 > 100 µM | KM-20L2 > 100 µM | HOP-18 > 100 µM | DLD-1 > 100 µM

O=c1c(Sc2c(O)c3ccccc3c3ccccc3c2=O)c(O)c2ccccc2c2ccccc12
inactive: DMS-114 25.4 µM | DMS-273 25.1 µM | RXF 631 37.2 µM | KM-20L2 37.4 µM | LXFL 529 30 µM | HOP-18 24.2 µM | DLD-1 51.3 µM

O=C(O)CC(NC(=O)CP(=O)(O)O)C(=O)O (configuration not stated)
inactive: XF498 596 µM | DMS-114 741 µM | SNB-78 973 µM | DMS-273 119 µM | KM-20L2 158 µM | HOP-18 3100 µM | DLD-1 66.4 µM

CCCCC[C@@H]1CCCC2NC(CCCCCO[Si](c3ccccc3)(c3ccccc3)C(C)(C)C)CCC21 (some centres not stated)
inactive: DMS-114 13 µM | SNB-78 15.1 µM | DMS-273 16.8 µM | RXF 631 11.5 µM | KM-20L2 10.6 µM | DLD-1 13.2 µM
